Measured values taken from patent US10392422B2, “Macrocyclic broad spectrum antibiotics” (priority 2014, dated 2019).

Legend:
[1] = tested on: MRSA strain USA300; assay: Checkerboard synergy assay (2D MIC) with imipenem; type: cell-based, Staphylococcus aureus; settings: many points of the isobologram (FIG. 1); synergy defined as sum of the FICs ≤0.5; 35° C., 22 hours
Procedure: 2D MIC assay or “checkerboard assays” are the most common method used to quantify synergistic or antagonistic interactions between two antibiotics with respect to potency (Hallander, H. O., et al., Antimicrob. Agents Chemother. 1982 22:743-752). In this assay in each axis of a 96-well plate contains a 2-fold dilution of a given agent, such that each well contains a unique combination of the agents being tested.
To create a checkerboard dilution scheme, imipenem was diluted in Mueller Hinton II Broth+0.002% Tween-80 to twice the final desired concentration, and six 2-fold serial dilutions were performed in the same media yielding seven imipenem concentrations. Dilutions of Compound 155 were prepared similarly except that ten dilutions were performed for a total of eleven concentrations. […]
MRSA strain USA300 was grown overnight at 35° C. on Mueller Hinton Agar plates, and colonies were suspended in Mueller Hinton II Broth+0.002% Tween-80 to a final density of 1*10^7 cfu/ml. […] The plate was incubated at 35° C. for 22 hours after which growth was determined via visual inspection. For each sub-MIC concentration of imipenem, the concentration of Compound 155 required to prevent visible growth was recorded, and the fractional inhibitor concentration (FIC) of each agent was calculated by dividing the concentration of each agent by MIC of the agent alone. […]

[2] = tested on: MRSA strain USA300; assay: SIC determination with partner beta-lactam antibiotics; type: cell-based, Staphylococcus aureus; settings: MRSA strain USA300
Procedure: Many compounds in the Examples, including Compound 155, synergize with a wide range of beta-lactam antibiotics as quantified by SIC determination, where the SIC is measured and defined in a manner identical to the MIC, […] being tested.

For `CCCCCCCCCCNCCC(=O)N[C@@H](CCCCN)C(=O)N(C)[C@@H]1C(=O)N[C@@H](C)C(=O)N[C@H](C(=O)N[C@@H](C)C(=O)N2CCC[C@H]2C(N)=O)Cc2ccc(O)c(c2)-c2cc1ccc2O.O=CO` [Compound 155], the “sum of the FICs (fractional inhibitor concentration) of Compound 155 and imipenem” value [1] was less than 0.5, the “Compound 155 SIC” value ([2]; media contains partner beta-lactam Amoxicillin/Clav at 1/4x its MIC) was 0.25 µg/mL and the “Compound 155 SIC” value ([2]; media contains partner beta-lactam Ampicillin at 1/4x its MIC) was 1 µg/mL. The “Compound 155 SIC” value ([2]; media contains partner beta-lactam Azlocillin at 1/4x its MIC) was 1 µg/mL, the “Compound 155 SIC” value ([2]; media contains partner beta-lactam Biapenem at 1/4x its MIC) was 0.0625 µg/mL and the “Compound 155 SIC” value ([2]; media contains partner beta-lactam Carbenicillin at 1/4x its MIC) was 0.5 µg/mL. For the same compound, the “Compound 155 SIC” value ([2]; media contains partner beta-lactam Cefaclor at 1/4x its MIC) was 0.25 µg/mL, the “Compound 155 SIC” value ([2]; media contains partner beta-lactam Cefamandole at 1/4x its MIC) was 0.25 µg/mL and the “Compound 155 SIC” value ([2]; media contains partner beta-lactam Cefazolin at 1/4x its MIC) was 0.125 µg/mL. For the same compound, the “Compound 155 SIC” value ([2]; media contains partner beta-lactam Cefdinir at 1/4x its MIC) was no more than 0.0156 µg/mL, the “Compound 155 SIC” value ([2]; media contains partner beta-lactam Cefepime at 1/4x its MIC) was 0.125 µg/mL and the “Compound 155 SIC” value ([2]; media contains partner beta-lactam Cefixime at 1/4x its MIC) was 0.25 µg/mL. The “Compound 155 SIC” value ([2]; media contains partner beta-lactam Cefmetazole at 1/4x its MIC) was 0.5 µg/mL, the “Compound 155 SIC” value ([2]; media contains partner beta-lactam Cefonicid at 1/4x its MIC) was 0.25 µg/mL and the “Compound 155 SIC” value ([2]; media contains partner beta-lactam Cefotaxime at 1/4x its MIC) was 0.125 µg/mL. The “Compound 155 SIC” value ([2]; media contains partner beta-lactam Cefotetan at 1/4x its MIC) was 0.5 µg/mL, the “Compound 155 SIC” value ([2]; media contains partner beta-lactam Cefoxitin at 1/4x its MIC) was 0.25 µg/mL and the “Compound 155 SIC” value ([2]; media contains partner beta-lactam Cefpodoxime at 1/4x its MIC) was 0.125 µg/mL. For the same compound, the “Compound 155 SIC” value ([2]; media contains partner beta-lactam Cefprozil at 1/4x its MIC) was 0.25 µg/mL, the “Compound 155 SIC” value ([2]; media contains partner beta-lactam Ceftazidime at 1/4x its MIC) was 0.5 µg/mL and the “Compound 155 SIC” value ([2]; media contains partner beta-lactam Ceftizoxime at 1/4x its MIC) was 0.25 µg/mL. For the same compound, the “Compound 155 SIC” value ([2]; media contains partner beta-lactam Ceftriaxone at 1/4x its MIC) was 0.0625 µg/mL, the “Compound 155 SIC” value ([2]; media contains partner beta-lactam Cephalothin at 1/4x its MIC) was 0.0625 µg/mL and the “Compound 155 SIC” value ([2]; media contains partner beta-lactam Doripenem at 1/4x its MIC) was 0.125 µg/mL. For the same compound, the “Compound 155 SIC” value ([2]; media contains partner beta-lactam Ertapenem at 1/4x its MIC) was 0.25 µg/mL, the “Compound 155 SIC” value ([2]; media contains partner beta-lactam Faropenem at 1/4x its MIC) was no more than 0.0156 µg/mL and the “Compound 155 SIC” value ([2]; media contains partner beta-lactam Imipenem at 1/4x its MIC) was 0.125 µg/mL. For the same compound, the “Compound 155 SIC” value ([2]; media contains partner beta-lactam Mecillinam at 1/4x its MIC) was 1 µg/mL, the “Compound 155 SIC” value ([2]; media contains partner beta-lactam Meropenem at 1/4x its MIC) was 0.25 µg/mL and the “Compound 155 SIC” value ([2]; media contains partner beta-lactam Methicillin at 1/4x its MIC) was 0.25 µg/mL. The “Compound 155 SIC” value ([2]; media contains partner beta-lactam Mezlocillin at 1/4x its MIC) was 0.5 µg/mL, the “Compound 155 SIC” value ([2]; media contains partner beta-lactam Moxalactam at 1/4x its MIC) was 0.125 µg/mL and the “Compound 155 SIC” value ([2]; media contains partner beta-lactam Oxacillin at 1/4x its MIC) was 0.125 µg/mL. The “Compound 155 SIC” value ([2]; media contains partner beta-lactam Piperacillin/tazobactam at 1/4x its MIC) was 0.5 µg/mL, the “Compound 155 SIC” value ([2]; media contains partner beta-lactam Ticarcillin at 1/4x its MIC) was 0.125 µg/mL and the “Fold reduction in Compound 155 MIC” value ([2]; partner beta-lactam Amoxicillin/Clav at 1/4x its MIC) was 16.
